According to US20090118332A1, “Therapeutic Agents - 551” (AstraZeneca AB, priority 2006, published 2009):

The molecules below were run against T1, human Fatty Acid Synthase (Homo sapiens, UniProt P49327) (assay: Human FAS enzyme assay (decrease in NADPH fluorescence)). Settings: % inhibition at a concentration of 100 μmolar.
T1 construct: made in house
Format: biochemical
Outline: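 In-house human FAS was preincubated with compound and NADPH for 15 min at room temperature in 0.1 M Tris pH 7.5 with EDTA, glutathione and BSA. Malonyl CoA and acetyl CoA (500 μM and 150 μM in the added mix) were then added for 60 min. IC50 came from time-zero-subtracted NADPH fluorescence (340/460 nm).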

T1 sequence (P49327 whole entry): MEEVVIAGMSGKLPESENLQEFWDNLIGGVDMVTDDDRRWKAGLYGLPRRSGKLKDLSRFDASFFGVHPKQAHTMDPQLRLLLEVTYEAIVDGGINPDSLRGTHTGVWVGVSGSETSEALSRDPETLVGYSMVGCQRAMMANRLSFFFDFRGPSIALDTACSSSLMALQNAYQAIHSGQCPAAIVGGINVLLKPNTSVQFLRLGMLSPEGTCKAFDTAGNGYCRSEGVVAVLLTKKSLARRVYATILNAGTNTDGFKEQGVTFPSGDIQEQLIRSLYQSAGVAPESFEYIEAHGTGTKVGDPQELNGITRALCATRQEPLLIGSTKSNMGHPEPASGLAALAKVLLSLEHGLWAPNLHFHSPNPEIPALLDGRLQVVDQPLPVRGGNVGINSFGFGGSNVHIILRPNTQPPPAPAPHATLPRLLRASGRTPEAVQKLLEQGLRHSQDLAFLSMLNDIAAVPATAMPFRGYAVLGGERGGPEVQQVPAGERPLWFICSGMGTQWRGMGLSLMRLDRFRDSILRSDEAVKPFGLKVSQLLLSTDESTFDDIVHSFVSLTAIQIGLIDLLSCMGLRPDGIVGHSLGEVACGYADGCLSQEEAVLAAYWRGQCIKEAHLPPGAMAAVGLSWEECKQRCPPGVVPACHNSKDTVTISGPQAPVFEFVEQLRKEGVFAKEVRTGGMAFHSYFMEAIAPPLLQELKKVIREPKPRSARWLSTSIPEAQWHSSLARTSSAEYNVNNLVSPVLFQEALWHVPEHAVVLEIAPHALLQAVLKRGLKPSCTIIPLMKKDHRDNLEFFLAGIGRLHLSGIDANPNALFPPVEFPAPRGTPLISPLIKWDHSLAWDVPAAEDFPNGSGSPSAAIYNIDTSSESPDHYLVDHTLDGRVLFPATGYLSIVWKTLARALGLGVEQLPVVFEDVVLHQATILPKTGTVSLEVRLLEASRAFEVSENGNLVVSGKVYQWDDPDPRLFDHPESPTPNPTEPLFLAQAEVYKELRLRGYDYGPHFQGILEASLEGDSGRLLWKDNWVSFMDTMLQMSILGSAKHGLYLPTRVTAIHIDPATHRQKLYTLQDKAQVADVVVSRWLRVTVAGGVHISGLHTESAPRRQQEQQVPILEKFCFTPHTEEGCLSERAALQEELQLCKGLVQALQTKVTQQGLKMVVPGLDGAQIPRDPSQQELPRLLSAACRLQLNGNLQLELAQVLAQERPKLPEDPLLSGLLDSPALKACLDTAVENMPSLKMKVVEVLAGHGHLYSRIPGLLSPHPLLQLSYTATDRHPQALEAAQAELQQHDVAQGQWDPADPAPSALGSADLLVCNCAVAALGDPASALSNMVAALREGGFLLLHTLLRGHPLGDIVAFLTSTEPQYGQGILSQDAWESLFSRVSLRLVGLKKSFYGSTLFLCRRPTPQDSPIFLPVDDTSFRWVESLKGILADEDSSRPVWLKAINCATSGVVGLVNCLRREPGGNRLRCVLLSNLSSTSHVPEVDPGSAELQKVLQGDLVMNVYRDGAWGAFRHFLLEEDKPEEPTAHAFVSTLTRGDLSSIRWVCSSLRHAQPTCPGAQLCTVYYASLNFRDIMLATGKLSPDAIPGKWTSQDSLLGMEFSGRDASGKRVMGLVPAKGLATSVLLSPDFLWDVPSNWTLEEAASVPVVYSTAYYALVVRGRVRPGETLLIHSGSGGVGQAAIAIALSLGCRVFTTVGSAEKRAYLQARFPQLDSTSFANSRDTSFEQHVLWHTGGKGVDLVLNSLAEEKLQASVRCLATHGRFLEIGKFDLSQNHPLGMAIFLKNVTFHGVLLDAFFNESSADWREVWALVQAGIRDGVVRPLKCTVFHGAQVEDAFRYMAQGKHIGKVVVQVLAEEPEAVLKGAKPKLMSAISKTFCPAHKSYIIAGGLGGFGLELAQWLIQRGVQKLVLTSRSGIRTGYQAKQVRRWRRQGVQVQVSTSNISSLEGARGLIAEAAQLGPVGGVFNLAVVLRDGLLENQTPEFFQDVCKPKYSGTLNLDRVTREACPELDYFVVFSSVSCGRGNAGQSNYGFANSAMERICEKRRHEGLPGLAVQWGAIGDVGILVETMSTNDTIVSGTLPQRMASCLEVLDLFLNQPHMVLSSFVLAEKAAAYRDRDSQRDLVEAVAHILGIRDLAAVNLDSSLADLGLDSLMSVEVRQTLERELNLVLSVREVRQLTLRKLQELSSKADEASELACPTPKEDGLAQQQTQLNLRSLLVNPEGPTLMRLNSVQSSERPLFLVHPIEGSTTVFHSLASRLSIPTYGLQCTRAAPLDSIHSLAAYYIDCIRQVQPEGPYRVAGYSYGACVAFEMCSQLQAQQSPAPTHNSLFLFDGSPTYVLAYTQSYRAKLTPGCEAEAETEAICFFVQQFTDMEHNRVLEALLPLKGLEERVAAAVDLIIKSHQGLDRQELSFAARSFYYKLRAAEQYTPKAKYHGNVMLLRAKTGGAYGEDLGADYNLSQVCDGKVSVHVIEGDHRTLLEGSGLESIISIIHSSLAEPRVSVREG

Point of comparison: `Cc1ccc(C(=O)N2CCC(c3ccc(C#N)cc3)CC2)cc1NC(=O)NCC1CCN(C)C1` (stereo not drawn) [Example 268, 1-[5-[4-(4-cyanophenyl)piperidine-1-carbonyl]-2-methyl-phenyl]-3-[(1-methylpyrrolidin-3-yl)methyl]urea], inhibition at 100 µM 90.1%. Against it:
- Cc1ccc(C(=O)N2CCC(c3ccc(C#N)cc3)CC2)cc1NC(=O)NCc1ncccc1C [Example 250, 3-[5-[4-(4-cyanophenyl)piperidine-1-carbonyl]-2-methyl-phenyl]-1-[(3-methylpyridin-2-yl)methyl]urea] — higher, 104%
- Cc1ccc(C(=O)N2CCC(c3ccc(C#N)cc3)CC2)cc1NC(=O)NC(C)C [Example 3, 3-[5-[4-(4-cyanophenyl)piperidine-1-carbonyl]-2-methyl-phenyl]-1-propan-2-yl-urea] — higher, 95.6%
- Cc1ccc(C(=O)N2CCC(c3ccc(C#N)cc3)CC2)cc1NC(=O)NCC(O)C(F)(F)F (racemic) [Example 195, (RS)-1-[5-[4-(4-cyanophenyl)piperidine-1-carbonyl]-2-methyl-phenyl]-3-(3,3,3-trifluoro-2-hydroxy-propyl)urea] — lower, 88.6%
- Cc1ccc(C(=O)N2CCC(c3ccc(C#N)cc3)CC2)cc1NC(=O)NCCNC(=O)C1CCCCC1 [Example 175, N-[2-[[5-[4-(4-cyanophenyl)piperidine-1-carbonyl]-2-methyl-phenyl]carbamoylamino]ethyl]cyclohexanecarboxamide] — higher, 96.1%
- Cc1ccc(C(=O)N2CCC(c3ccc(C#N)cc3)CC2)cc1NC(=O)N[C@H]1CCCC[C@H]1N (relative stereo) [Example 304, 3-[(cis)-2-aminocyclohexyl]-1-[5-[4-(4-cyanophenyl)piperidine-1-carbonyl]-2-methyl-phenyl]urea] — higher, 92.8%
- Cc1ccc(C(=O)N2CCC(c3ccc(C#N)cc3)CC2)cc1NC(=O)NCC#N [Example 167, 3-(cyanomethyl)-1-[5-[4-(4-cyanophenyl)piperidine-1-carbonyl]-2-methyl-phenyl]urea] — higher, 90.3%
- CCC(C)NC(=O)Nc1cc(C(=O)N2CCC(c3ccc(C#N)cc3)CC2)ccc1C (stereo not drawn) [Example 226, 1-butan-2-yl-3-[5-[4-(4-cyanophenyl)piperidine-1-carbonyl]-2-methyl-phenyl]urea] — lower, 84.2%
- Cc1ccc(C(=O)N2CCC(O)(c3ccc(Br)cc3)CC2)cc1NC(=O)NC(C)C [Example 39, 1-[5-[4-(4-bromophenyl)-4-hydroxy-piperidine-1-carbonyl]-2-methyl-phenyl]-3-propan-2-yl-urea] — lower, 79.1%
- Cc1ccc(C(=O)N2CCC(c3ccc(C#N)cc3)CC2)cc1NC(=O)NC1CCN(Cc2ccccc2)CC1 [Example 41, 3-(1-benzyl-4-piperidyl)-1-[5-[4-(4-cyanophenyl)piperidine-1-carbonyl]-2-methyl-phenyl]urea] — higher, 94.4%
- Cc1ccc(NC(=O)N[C@H](C)c2ccccc2)cc1C(=O)N1CCC(c2ccc(C#N)cc2)CC1 [Example 37, 3-[3-[4-(4-cyanophenyl)piperidine-1-carbonyl]-4-methyl-phenyl]-1-[(1R)-1-phenylethyl]urea] — lower, 74.3%
- COCCCNC(=O)Nc1cc(C(=O)N2CCC(c3ccc(C#N)cc3)CC2)ccc1C [Example 154, 1-[5-[4-(4-cyanophenyl)piperidine-1-carbonyl]-2-methyl-phenyl]-3-(3-methoxypropyl)urea] — higher, 93%
- Cc1ccc(C(=O)N2CCC(c3ccc(C#N)cc3)CC2)cc1NC(=O)NC1CCCNC1 (stereo not drawn) [Example 286, 1-[5-[4-(4-cyanophenyl)piperidine-1-carbonyl]-2-methyl-phenyl]-3-(3-piperidyl)urea] — higher, 99.6%
- Cc1cccc(CNC(=O)Nc2cc(C(=O)N3CCC(c4ccc(C#N)cc4)CC3)ccc2C)c1 [Example 54, 3-[5-[4-(4-cyanophenyl)piperidine-1-carbonyl]-2-methyl-phenyl]-1-[(3-methylphenyl)methyl]urea] — higher, 92.2%
- COc1ccccc1CCNC(=O)Nc1cc(C(=O)N2CCC(c3ccc(C#N)cc3)CC2)ccc1C [Example 61, 1-[5-[4-(4-cyanophenyl)piperidine-1-carbonyl]-2-methyl-phenyl]-3-[2-(2-methoxyphenyl)ethyl]urea] — lower, 84.8%
- CCC(=O)N1CC[C@H](NC(=O)Nc2cc(C(=O)N3CCC(c4ccc(C#N)cc4)CC3)ccc2C)C1 [Example 220, 3-[5-[4-(4-cyanophenyl)piperidine-1-carbonyl]-2-methyl-phenyl]-1-[(3S)-1-propanoylpyrrolidin-3-yl]urea] — higher, 96.7%
- Cc1ccc(C(=O)N2CCC(c3ccc(C#N)cc3)CC2)cc1NC(=O)N[C@@H](CCS(C)(=O)=O)C(=O)O [Example 240, (2S)-2-[[5-[4-(4-cyanophenyl)piperidine-1-carbonyl]-2-methyl-phenyl]carbamoylamino]-4-methylsulfonyl-butanoic acid] — higher, 99.3%
- Cc1ccc(C(=O)N2CCC(c3ccc(C#N)cc3)CC2)cc1NC(=O)NC1CN(S(=O)(=O)N(C)C)C1 [Example 303, 1-[5-[4-(4-cyanophenyl)piperidine-1-carbonyl]-2-methyl-phenyl]-3-[1-(dimethylsulfamoyl)azetidin-3-yl]urea] — higher, 93.5%
- CCCOCCNC(=O)Nc1cc(C(=O)N2CCC(c3ccc(C#N)cc3)CC2)ccc1C [Example 164, 3-[5-[4-(4-cyanophenyl)piperidine-1-carbonyl]-2-methyl-phenyl]-1-(2-propoxyethyl)urea] — higher, 95%
- Cc1ccc(C(=O)N2CCC(c3ccc(C#N)cc3)CC2)cc1NC(=O)NC[C@@H](NC(=O)OC(C)(C)C)C(=O)O [Example 370, (2R)-3-[[5-[4-(4-cyanophenyl)piperidine-1-carbonyl]-2-methylphenyl]carbamoylamino]-2-[(2-methylpropan-2-yl)oxycarbonylamino]propanoic acid] — higher, 106%
- Cc1ccc(C(=O)N2CCC(c3ccc(C#N)cc3)CC2)cc1NC(=O)NCCN(C)C(=O)OC(C)(C)C [Example 115, tert-butyl N-[2-[[5-[4-(4-cyanophenyl)piperidine-1-carbonyl]-2-methyl-phenyl]carbamoylamino]ethyl]-N-methyl-carbamate] — higher, 92.9%
- CCCS(=O)(=O)NCCNC(=O)Nc1cc(C(=O)N2CCC(c3ccc(C#N)cc3)CC2)ccc1C [Example 174, 3-[5-[4-(4-cyanophenyl)piperidine-1-carbonyl]-2-methyl-phenyl]-1-[2-(propylsulfonylamino)ethyl]urea] — higher, 97.4%
- C[S+]([O-])c1ccc(C(=O)N2CCC(c3ccc(C#N)cc3)CC2)cc1NC(=O)NCc1ccccc1 (stereo not drawn) [Example 387, 3-benzyl-1-[5-[4-(4-cyanophenyl)piperidine-1-carbonyl]-2-methylsulfinylphenyl]urea] — lower, 72.9%
- Cc1ccc(C(=O)N2CCC(c3ccc(C#N)cc3)CC2)cc1NC(=O)N[C@H]1CCN(S(C)(=O)=O)C1 [Example 221, 1-[5-[4-(4-cyanophenyl)piperidine-1-carbonyl]-2-methyl-phenyl]-3-[(3S)-1-methylsulfonylpyrrolidin-3-yl]urea] — higher, 102%
- COCC(C)NC(=O)Nc1cc(C(=O)N2CCC(c3ccc(C#N)cc3)CC2)ccc1C (stereo not drawn) [Example 155, 1-[5-[4-(4-cyanophenyl)piperidine-1-carbonyl]-2-methyl-phenyl]-3-(1-methoxypropan-2-yl)urea] — the same, 90.1%
- Cc1ccc(C(=O)N2CCC(c3ccc(C#N)cc3)CC2)cc1NC(=O)N[C@@H]1CCC(=O)NC1 [Example 265, 1-[5-[4-(4-cyanophenyl)piperidine-1-carbonyl]-2-methyl-phenyl]-3-[(3R)-6-oxo-3-piperidyl]urea] — higher, 90.6%
- Cc1ccc(C(=O)N2CCC(c3ccc(C#N)cc3)CC2)cc1NC(=O)NC1CCN(C)CC1 [Example 148, 1-[5-[4-(4-cyanophenyl)piperidine-1-carbonyl]-2-methyl-phenyl]-3-(1-methyl-4-piperidyl)urea] — lower, 79.5%
- Cc1ccc(C(=O)N2CCC(c3ccc(C#N)cc3)CC2)cc1NC(=O)NC1CCCC[C@@H]1C(N)=O (stereo partly drawn) [Example 134, (1S)-2-[[5-[4-(4-cyanophenyl)piperidine-1-carbonyl]-2-methyl-phenyl]carbamoylamino]cyclohexane-1-carboxamide] — lower, 84.6%
- Cc1cccc(CNC(=O)Nc2cc(C(=O)N3CCC(c4ccc(C#N)cc4)CC3)ccc2C)n1 [Example 249, 1-[5-[4-(4-cyanophenyl)piperidine-1-carbonyl]-2-methyl-phenyl]-3-[(6-methylpyridin-2-yl)methyl]urea] — lower, 84.2%
- CC(C)NC(=O)Nc1cc(C(=O)N2CCC(c3ccc(C#N)cc3)CC2)ccc1[S+](C)[O-] (stereo not drawn) [Example 386, 3-[5-[4-(4-cyanophenyl)piperidine-1-carbonyl]-2-methylsulfinylphenyl]-1-propan-2-ylurea] — lower, 67.4%

Same assay, conditions: FAS enzyme assay, IC50 from fitted sigmoid curves

With `COC(=O)[C@H](CCc1nnn[nH]1)NC(=O)Nc1cc(C(=O)N2CCC(c3ccc(C#N)cc3)CC2)ccc1C` [Methyl (2S)-2-[[5-[4-(4-cyanophenyl)piperidine-1-carbonyl]-2-methylphenyl]carbamoylamino]-4-(1H-tetrazol-5-yl)butanoate] the “IC50, inhibition of human Fatty Acid Synthase” value (from here on “IC50, inhibition”) was “do not have IC50s in the range of about 0.001 μM to about 30 μM”.
With `COC(=O)[C@@H](NC(=O)Nc1cc(C(=O)N2CCC(c3ccc(C#N)cc3)CC2)ccc1C)C(C)C` [Methyl (2S)-2-[[5-[4-(4-cyanophenyl)piperidine-1-carbonyl]-2-methylphenyl]carbamoylamino]-3-methylbutanoate] the “IC50, inhibition” value was “do not have IC50s in the range of about 0.001 μM to about 30 μM”.
`COC(=O)C(C)(C)NC(=O)Nc1cc(C(=O)N2CCC(c3ccc(C#N)cc3)CC2)ccc1C` [Methyl 2-[[5-[4-(4-cyanophenyl)piperidine-1-carbonyl]-2-methylphenyl]carbamoylamino]-2-methylpropanoate] was tested, and the “IC50, inhibition” value was “do not have IC50s in the range of about 0.001 μM to about 30 μM”.
